In ChEMBL document CHEMBL1201862, “PubChem BioAssay data set” (2004):
Activity calls are given as the source filed them. Cut-off read from the data, not from the text of the source, for most assays here: actives have a measured EC50 and inactives only a lower limit.

Assays:
Streptokinase A = molecular target: T1, Streptokinase A (Streptococcus pyogenes serotype M1, UniProt P10520); test: viability-normalized secreted streptokinase activity reduction – plasminogen activation absorbance, OD405, dose response (AID 1914); assay type: functional, Streptococcus pyogenes M1 GAS;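 note: secreted streptokinase activity via plasminogen activation per viability signal from cell pellet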
T1 sequence (P10520 whole entry): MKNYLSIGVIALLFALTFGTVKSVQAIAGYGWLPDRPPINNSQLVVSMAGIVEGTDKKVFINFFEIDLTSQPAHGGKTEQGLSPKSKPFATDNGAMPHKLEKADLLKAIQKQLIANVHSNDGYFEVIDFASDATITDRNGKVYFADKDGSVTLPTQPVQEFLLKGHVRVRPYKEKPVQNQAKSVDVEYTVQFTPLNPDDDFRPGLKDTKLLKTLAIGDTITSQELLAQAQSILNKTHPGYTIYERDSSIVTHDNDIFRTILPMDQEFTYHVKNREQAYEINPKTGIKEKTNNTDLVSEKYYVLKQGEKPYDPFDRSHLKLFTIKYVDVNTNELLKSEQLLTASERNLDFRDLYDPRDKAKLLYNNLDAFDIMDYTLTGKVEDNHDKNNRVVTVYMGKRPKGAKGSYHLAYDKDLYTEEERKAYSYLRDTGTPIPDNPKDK

Streptococcus = test: GAS UMAA2166 growth inhibition – luminescence, BacTiterGlo, counter-screen for streptokinase expression inhibitor project, dose response (AID 1915); assay type: functional, organism-based;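 note: potency for reduction of bacterial viability or growth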
[1] = molecular target: T2, Heat shock factor protein 1 (Mus musculus, UniProt P38532); test: decrease of HSF1-responsive luciferase luminescence – cell-based, NIH3T3, dose retest, confirmation (AID 2382); assay type: functional;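 note: NIH3T3 fibroblasts with HSF1-driven luciferase reporter stressed by proteasome inhibitor MG132; luminescence from HSF1-driven luciferase expression after 8 hours of MG132 stress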
T2 sequence (P38532 whole entry): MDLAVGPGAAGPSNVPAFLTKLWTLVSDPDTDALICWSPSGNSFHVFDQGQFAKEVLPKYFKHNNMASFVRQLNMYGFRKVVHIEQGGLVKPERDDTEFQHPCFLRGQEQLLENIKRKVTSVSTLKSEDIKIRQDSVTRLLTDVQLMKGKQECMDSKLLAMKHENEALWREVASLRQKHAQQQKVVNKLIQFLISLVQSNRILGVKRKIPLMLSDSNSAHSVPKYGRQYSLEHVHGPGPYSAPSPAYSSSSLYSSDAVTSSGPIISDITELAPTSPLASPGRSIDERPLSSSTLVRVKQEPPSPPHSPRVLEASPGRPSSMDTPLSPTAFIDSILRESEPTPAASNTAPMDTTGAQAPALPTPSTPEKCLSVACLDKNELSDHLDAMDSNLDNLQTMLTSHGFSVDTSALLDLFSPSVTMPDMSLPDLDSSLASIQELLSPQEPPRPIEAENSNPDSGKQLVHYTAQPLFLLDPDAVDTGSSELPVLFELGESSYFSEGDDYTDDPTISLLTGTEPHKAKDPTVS

[2] = luciferase reporter signal suppression in cells – H4 neuroglioma cells, luminescence, dose response (AID 1990); assay type: functional, cell-based
[3] = Luminescence Cell-Based Dose Response HTS to Identify Inhibitors of 5'UTR Stem-Loop Driven Prion Protein mRNA Translation in H4 Neuroglioblastoma Cells. [Related pubchem assays: 1827 (Project Summary), 1813 (Primary HTS)]; assay type: functional
[4] = alpha-synuclein stem-loop luciferase translation blockers – H4 neuroglioma cells, luminescence, confirmation (AID 1988); assay type: functional, cell-based
[5] = viability of uninfected HEp-2 cells – cell-based, HTS, cytotoxicity control for RSV inhibitor project, dose response (AID 2410); assay type: functional; conditions: human respiratory syncytial virus
[6] = tested on: Streptococcus sp. 'group A'; test: Streptococcus pyogenes SK(-)GAS viability under kanamycin – luminescence, BacTiterGlo, confirmation, counter-screen for streptokinase expression inhibitor project, dose response (AID 1900); assay type: functional, organism-based
INS1 = test: INS-1E survival protection against cytokine death – cell-based, luminescence, retest, dose response (AID 449756); assay type: functional; conditions: Rattus norvegicus;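 note: cell death triggered by IL-1 beta plus TNF-alpha plus IFN-gamma mixture; protective hits raise ATP signal compared with cytokine alone wells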

In the case of `CCOC(=O)N1CCN(C(=O)c2ccc3c(=O)n(CCC4=CCCCC4)c(=S)[nH]c3c2)CC1`, the EC50 (Streptokinase A) is reported as 29.8 µM (active) and the EC50 (Streptococcus) is reported as > 150 µM (not active).
In the case of `Cc1ccc(N(CC(=O)NCCSCc2ccco2)S(C)(=O)=O)cc1`, the EC50 [1] is reported as > 195 µM (not active).
With `COc1cc(C(=O)O/N=C(\N)Cc2ccc([N+](=O)[O-])cc2)cc(OC)c1OC` the EC50 [2] was 23.3 µM (active), the EC50 [3] was > 120 µM (not active) and the EC50 [4] was 8.41 µM (active).
For `O=C(NCCC1CCCCN1S(=O)(=O)c1ccc(F)cc1)C(=O)Nc1ccccc1F` (configuration not stated), the EC50 [1] was > 195 µM (not active).
With `COc1cccc(NC(=S)N(CCc2c(C)[nH]c3ccc(C)cc23)Cc2cccs2)c1` the CC50 [5] was 13.4 µM (active).
In the case of `Cc1cc(C)cc(NC(=O)N2CCN(Cc3ccc4c(c3)OCO4)CC2)c1`, the EC50 [1] is reported as > 195 µM (not active).
With `CCn1cnc2sc(C(=O)Oc3cccc(C)c3)c(C)c2c1=O` the EC50 [6] was 11.8 µM (active), the EC50 (Streptokinase A) was > 150 µM (not active) and the EC50 (Streptococcus) was 28.8 µM (active).
With `Cn1c(=O)c2c3c(sc2n2c(SCc4ccccc4)nnc12)CCCC3` the CC50 [5] was > 50 µM (active).
With `Cc1ccccc1Nc1c(-c2ccccn2)nc2c(C)cccn12` the EC50 [6] was 19.3 µM (active), the EC50 (Streptokinase A) was > 150 µM (not active) and the EC50 (Streptococcus) was > 150 µM (not active). The AC50 (INS1) was 6.81 µM (active).
In the case of `COc1ccccc1N1CC(C)C(=O)NC1=S` (configuration not stated), the EC50 [1] is reported as > 195 µM (not active).
In the case of `NCCCC[C@@H](C(=O)N1CCNCC1)n1cc([C@@H](N)CO)nn1`, the EC50 [1] is reported as > 195 µM (not active).
With `CC(Sc1nc2cc([N+](=O)[O-])ccc2n1-c1cccc(C(F)(F)F)c1)C(=O)NC(N)=O` (configuration not stated) the EC50 [6] was > 150 µM (not active), the EC50 (Streptokinase A) was > 150 µM (not active) and the EC50 (Streptococcus) was > 150 µM (not active).
For `c1ccc2c(c1)CC1(CCCCC1)n1nnnc1-2`, the EC50 [1] was > 195 µM (not active).
For `CC1(C)C[C@H](O)[C@]2(CO)CC[C@]3(C)C(=CCC4[C@@]5(C)CC[C@H](O)C(C)(C)C5CC[C@]43C)[C@@H]2C1` (some centres not stated), the CC50 [5] was 36.2 µM (active).
For `CCOC(=O)Cn1c(CN2CCN(c3cccc(Cl)c3)CC2)nc2c1c(=O)[nH]c(=O)n2C`, the EC50 [1] was > 195 µM (not active).
In the case of `COC(=O)C1=C(C(=O)OC)[C@@H]2N(C)c3ccccc3[C@@]23C[C@@H](C(=O)OC)N(C(=O)CC(C)C)C3=N1`, the EC50 [1] is reported as > 195 µM (not active).
For `COCC(C)NC(=O)c1ccc2nc(-c3ccccc3)c(-c3ccccc3)nc2c1` (configuration not stated), the EC50 [1] was > 195 µM (not active).
With `CCN(CC(=O)NCC1CCCO1)S(=O)(=O)c1ccc(Cl)cc1` (configuration not stated) the EC50 [6] was > 150 µM (not active), the EC50 (Streptokinase A) was > 150 µM (not active) and the EC50 (Streptococcus) was > 150 µM (not active).
For `CC12CC(c3ccccc3O1)C(C(=O)NCc1ccccc1)C(=O)N2` (configuration not stated), the EC50 [1] was > 195 µM (not active).
For `CCc1ccc(Nc2n[n+](-c3ccccc3)c(-c3ccc(OC)c(Br)c3)s2)cc1`, the CC50 [5] was 31.3 µM (active).
With `Cc1cccc(NC(=O)c2ccc(S(=O)(=O)N(C)CC3CCCO3)cc2)c1C` (configuration not stated) the EC50 [6] was > 150 µM (not active), the EC50 (Streptokinase A) was > 150 µM (not active) and the EC50 (Streptococcus) was > 150 µM (not active).
With `CSc1nc2c(c(=O)n1Cc1ccccc1)SC(C)C2` (configuration not stated) the EC50 [2] was 25.7 µM (active), the EC50 [3] was > 120 µM (not active) and the EC50 [4] was 84.8 µM (active).
With `Cc1nc(C(=O)NNC(=O)c2c(-c3c(Cl)cccc3Cl)noc2C)cs1` the AC50 (INS1) was 6.91 µM (active).
With `COc1ccccc1Nc1ncnc2c1c(C)c(C)n2CCO` the CC50 [5] was > 50 µM (active).
With `CC1(C)Cc2nc3sc4c(OCc5ccccc5)ncnc4c3cc2CO1` the EC50 [6] was 4.04 µM (active), the EC50 (Streptokinase A) was > 150 µM (not active) and the EC50 (Streptococcus) was 11 µM (active).
With `c1ccc(-n2nnnc2Oc2ccc(-c3nnco3)cc2)cc1` the EC50 [1] was > 195 µM (not active).
In the case of `Oc1ccccc1CNc1ccc(OC(F)(F)F)cc1`, the EC50 [1] is reported as > 195 µM (not active).
With `CCN(CC)CC(=O)Nc1sc2c(c1C(=O)c1ccccc1OC)CCC2` the EC50 [2] was > 120 µM (not active), the EC50 [3] was 16.2 µM (active) and the EC50 [4] was > 120 µM (not active).
In the case of `Cc1ccccc1Nc1nc(N)nc(CN(C)Cc2ccccc2Cl)n1`, the EC50 [6] is reported as > 150 µM (not active), the EC50 (Streptokinase A) is reported as > 150 µM (not active) and the EC50 (Streptococcus) is reported as > 150 µM (not active).
In the case of `COc1cc2c3c(c1)/C(=C1/SC(=S)NC1=O)C(=O)N3C(C)(C)C=C2C`, the EC50 [6] is reported as 2.63 µM (active), the EC50 (Streptokinase A) is reported as 1.72 µM (active) and the EC50 (Streptococcus) is reported as 8.28 µM (active).
In the case of `O=C(COc1ccc(Cl)cc1)NCc1nnc2c3ccccc3c(-c3ccccc3)nn12`, the CC50 [5] is reported as 17.9 µM (active).
With `COc1ccc(C=O)cc1Cn1ccnc1C` the EC50 [1] was > 195 µM (not active).
For `Cc1c(C(=O)OCC(=O)N2CC(C)OC(C)C2)oc2ccc(Br)cc12` (configuration not stated), the EC50 [1] was > 195 µM (not active).
In the case of `CC(=O)c1cccc(NC(=O)CN2C(=O)c3ccccc3C2=O)c1`, the EC50 [1] is reported as > 195 µM (not active).
For `COC(=O)C1=CN(c2ccc(OC)cc2)C=C(C(=O)OC)C1c1ccc(C)c([N+](=O)[O-])c1`, the CC50 [5] was 48.1 µM (active).
In the case of `CN1C(=O)/C(=C/c2ccc(C(F)(F)F)cc2)Sc2ccc(C(=O)N3CCN(c4ccccn4)CC3)cc21`, the EC50 [6] is reported as 1.53 µM (active), the EC50 (Streptokinase A) is reported as > 150 µM (not active) and the EC50 (Streptococcus) is reported as 12.5 µM (active).
In the case of `Cc1ccc(-c2cn(-c3ccccc3)c(S)n2)cc1C`, the EC50 [1] is reported as > 195 µM (not active).
For `C=CCn1c(NCc2ccc(OC)cc2O)nc2ccccc21`, the CC50 [5] was 37.8 µM (active).
In the case of `O=S(=O)(c1ccc2c(c1)OCCO2)N1CCC(c2nc(O)c3nnn(Cc4ccc(F)cc4)c3n2)CC1`, the CC50 [5] is reported as 37.6 µM (active).
With `CCOC(=O)c1c(C)[nH]c(C(=O)OCC(=O)NC(C)(C)C)c1C` the AC50 (INS1) was 5.11 µM (active).
For `Cc1nc2c(-c3ccccc3)c(C)nn2c(O)c1Cc1ccccc1`, the EC50 [6] was 9.56 µM (active), the EC50 (Streptokinase A) was > 50 µM (not active) and the EC50 (Streptococcus) was 18.5 µM (active).
For `CCn1c(SCC(=O)Nc2oc(C)c3c(C)nnc(O)c23)nc2sc(C)c(C)c2c1=O`, the EC50 [1] was > 195 µM (not active).
In the case of `CC(C)(C)OC(=O)N1CCC(CNC(=O)c2cccs2)CC1`, the AC50 (INS1) is reported as > 260 µM (inactive).
In the case of `O=C(N/N=C/c1ccccc1)c1c(O)nc2ccccc2c1O`, the AC50 (INS1) is reported as 6.26 µM (active).
For `FC(F)(F)c1ccccc1/C=N/n1c(S)nnc1C1CCCCC1`, the EC50 [6] was 8.41 µM (active), the EC50 (Streptokinase A) was 32.4 µM (inconclusive) and the EC50 (Streptococcus) was 15.7 µM (active).
With `Cc1nn(-c2ccccc2)c(O)c1/C=N/NC(=O)COc1ccccc1[N+](=O)[O-]` the AC50 (INS1) was 3.4 µM (active).
With `CCOC(=O)c1ccc(/N=c2\sc(C(=O)OC)cc(=O)n2Cc2ccc3c(c2)OCO3)cc1` the CC50 [5] was 20.8 µM (active).
In the case of `COc1ccc(CN2C(=O)c3ccccc3C(/C=N\OCc3ccc(C)cc3)C2=O)cc1` (configuration not stated), the EC50 [6] is reported as 1.67 µM (active), the EC50 (Streptokinase A) is reported as > 150 µM (not active) and the EC50 (Streptococcus) is reported as 11.2 µM (active).
With `COc1cc(Cc2cc(N)nc(N)n2)cc(OC)c1OC` the EC50 [6] was 3.11 µM (active), the EC50 (Streptokinase A) was > 150 µM (not active) and the EC50 (Streptococcus) was > 150 µM (not active).
In the case of `Cc1ccc(S(=O)(=O)Nc2ccccc2N(C)S(=O)(=O)c2ccc(C)cc2)cc1`, the AC50 (INS1) is reported as 10.2 µM (active).
With `C[C@H](CCC(=O)NCC(=O)O)[C@H]1CC[C@H]2[C@@H]3[C@H](O)C[C@@H]4C[C@H](O)CC[C@]4(C)[C@H]3C[C@H](O)[C@]12C` [GLYCOCHOLIC ACID] the EC50 [6] was > 150 µM (not active), the EC50 (Streptokinase A) was > 150 µM (not active) and the EC50 (Streptococcus) was > 150 µM (not active).
